We go through 88 molecules from a melting point compilation (Tetko et al.; mined from patent text by program, amines drawn as free bases though some values may be those of a salt).

Structures are written as SMILES.

As to `CCN(C(=O)c1cc(N(C)C)ccc1[Si](C)(C)C)C(OC)C(C)(C)C` (stereo not drawn), the melting point was in the range of 96 to 98 °C.
Then `O=C1C(=C(O)Cc2ccccc2)SC(=S)N1c1ccccc1`, with 146 to 148 °C; and `CCOC(=O)N1C=CSC1C1=C(C)N=CC(OC)(OC)S1` (stereo not drawn), with 148 to 149 °C; and `Nc1nc(F)cc(CF)n1`, with 189 to 190 °C.
In the case of `COC(=O)c1cc(C(C)(C)C)c(O[Si](C)(C)Oc2c(C(C)(C)C)cc(C(=O)OC)cc2C(C)(C)C)c(C(C)(C)C)c1` it was 197 to 198 °C; in that of `CCCn1nc2c(N)nc3c(c2c1CCC1CCCCC1)CCCC3`, 173 to 174 °C.
Then `CCN(CC)c1ccc(C(F)(F)F)cc1NC(=O)c1ccncc1`, with 78 to 80 °C.
The molecule `CS(=O)(=O)c1ccc(C(Br)C(=O)c2ccc(F)cc2)cc1` (stereo not drawn) showed a melting point of 140 to 141 °C.
Then `N#CCCN1C(=O)C2(OCCCO2)c2ccc(Cl)cc21`, with 163 to 164 °C; and `CN1C2CCC1CN(c1ccc(C#Cc3ccc(NC(=O)c4ccccc4)cc3)nn1)C2`, with 88 to 96 °C; and `CN(C)C(=O)C(Nc1ccccc1)c1ccccc1` (stereo not drawn), with 134 to 137 °C.
Regarding `CC(C)c1cccc(C(C)C)c1NC(=O)CC1=C(c2ccccc2)c2cc(Cl)ccc2N(C)C1`, the melting point was in the range of 192 to 194 °C.
Then `COC(=O)C=CC1C(C(=O)OC(C)(C)C)C1(C)C` (stereo not drawn), with 67 °C; and `C=CCSc1ccc(-c2ccccc2)nn1`, with 96 to 98 °C.
Then `COC(=O)c1cc(C(=O)Nc2ccncc2)c2cc(Cc3ccc(F)cc3)cnc2c1O`, with 266 to 267 °C; and `FC(F)(F)c1ccc(-c2cc(Cl)ncn2)cc1`, with 227 to 230 °C; and `Cc1cccc2c1NC(C)c1nnnn1-2` (stereo not drawn), with 159 to 161 °C.
Then `CC(=O)N1CCC2(CC1)CN=C(c1cc3cccc(N(C)S(=O)(=O)c4cccs4)c3[nH]1)S2`, with 216 to 218 °C; and `Cc1[nH]c(C)c(-c2ccc(Oc3ccc(C(F)(F)F)cc3)cc2)c(=O)c1Br`, with 304 to 305 °C; and `COc1cccc(C23CCC(=O)C(C2)NC3=O)c1` (stereo not drawn), with 138 to 139 °C.
For `CCOC(=O)Cc1c(C(=O)OCC)c(C)cn1CCOS(C)(=O)=O`, the melting point was 66 to 68 °C.
In the case of `COc1cc2c(cc1OCc1ccccc1)CCN(C(=O)NCCN(C)C1CCCCC1)C2c1ccccc1` (stereo not drawn) it was 109 to 110 °C.
Then `CNc1cccc2c(=O)c(C)c(-c3ccccc3)oc12`, with 143 to 146 °C; and `O=C(Nc1nccs1)c1nc(-c2cccc3ccccc23)[nH]c1-c1ccc(Cl)cc1`, with 206 to 208 °C; and `COc1ccc(NS(C)(=O)=O)nc1`, with 156 to 158 °C.
`O=C(Nc1nccs1)c1c(C(F)(F)F)nc2cc(C(F)(F)F)ccc2c1O`: the melting point stood at 270 °C.
Then `CC1CC(O)=CC(=O)O1` (stereo not drawn), with 103 to 104 °C; and `COC(=O)CSc1nc(SCc2c(Cl)cccc2Cl)ncc1[N+](=O)[O-]`, with 155 to 158 °C.
Then `CCOC(=O)[C@H](O)[C@@H](NC(=O)OC(C)(C)C)c1ccccc1`, with 102 °C; and `Cc1nc(Sc2ccccc2)sc1C(=O)O`, with 187 to 188 °C; and `CCOC(=O)c1c(/C=C/c2nccn2C)nc2cc(OC)c(OC)cc2c1-c1ccc(OC)c(OC)c1`, with 206 to 208 °C.
In the case of `Cc1ccn(-c2ccc(C(=O)C3c4ccccc4NC=C4N=NNN43)c(Cl)c2)n1` (stereo not drawn) it was 110 to 114 °C; in that of `CCOC(=O)CNC(=O)C(CCl)NC(=O)OC(C)(C)C` (stereo not drawn), 71.5 to 72 °C.
The molecule `Cn1nc(-c2cc(C(=O)O)c(Cl)cc2F)c(Cl)c1C(F)(F)F` came in with a melting point of 179 to 181 °C.
In the case of `NC(=O)c1nnc2n1-c1sc(Cl)cc1C(c1ccccc1Cl)=NC2` it was 248 to 251 °C.
In the case of `COc1ccc2c(c1)C(=O)C1=NCCCN12` it was 152 °C; in that of `c1ccc2c(c1)OCCc1c-2n(CCCN2CCCCC2)c2ccccc12`, 65 to 66 °C; in that of `CC(CC1C(C(=O)O)C1(C)C)=C(Cl)Cl` (stereo not drawn), 58.5 to 60 °C.
Then `CC(C)NC(=O)Nc1nc2nc(N)ncc2cc1-c1c(Cl)cccc1Cl`, with 184 to 188 °C; and `C(=C(\C(=C\c1ccccc1)c1ccccc1)c1ccccc1)/c1ccccc1`, with 183 to 184 °C; and `CC1(C)SCCN(S(=O)(=O)c2ccc(-c3ccc(Br)cc3)cc2)C1C(=O)O` (stereo not drawn), with 178 to 180 °C.
As to `C[C@H](NC(=O)c1c[nH]c2ncc(-c3ccc(C(F)(F)F)cc3)nc12)C(C)(C)C`, the melting point was greater than 300 °C.
The molecule `Cc1oc(-c2ccccc2)nc1COc1ccc(CCCBr)cc1` displayed a melting point of 80 to 81 °C.
In the case of `CCc1c(-c2ccc(OCc3ccccc3)cc2)c2c(COCCCCCN3CCCCC3)cc3c(OCc4ccccc4)ccc1n32` it was 106 to 107 °C; in that of `O=C1CCC(c2ccc(N=C(CCCc3ccccc3)c3ccc(O)cc3O)cc2)=NN1`, 274 to 280 °C; in that of `COCCOCOc1ccc(C(=O)c2nc3ccc(OCOCCOC)cc3s2)cc1`, 46 °C.
In the case of `Cc1nc(NC(=O)c2ccccc2S(C)(=O)=O)sc1C(=O)NCc1ccccc1` it was 239 to 242 °C.
Then `O=C(CC(=O)c1ccc(-c2ccccc2)cc1)Nc1ccc(OCCN2CCCC2)c(C(=O)O)c1`, with 236 to 240 °C.
`CCCCCCCCCCCCCCCCCCOc1cc(C(=O)OC)cc([N+](=O)[O-])c1` came in with a melting point of 64 to 66 °C.
Then `COC(=O)CSc1nc(Sc2ccc(Cl)cc2)ncc1[N+](=O)[O-]`, with 157 to 159 °C; and `OC(c1ccc(F)cc1)c1ccc2noc(-c3cccc(Cl)c3)c2c1` (stereo not drawn), with 171 °C; and `C[C@@H]1Cc2ccsc2[C@H](C)N1CCCCNS(=O)(=O)c1ccc(NS(C)(=O)=O)cc1` (relative stereo), with 134 to 136 °C.
In the case of `CCOC(=O)c1c(N2CCN(C(=O)c3cccs3)CC2)c2ccccc2[nH]c1=O` it was 198 °C; in that of `O=c1[nH]ncc2[nH]c(-c3ccc(OC(F)F)c(OC4CCC4)c3)cc12`, 289 to 291 °C.
Then `O=c1[nH]c2cc(N3CCCC3)c(F)cc2c(=O)n1OCc1ccccc1`, with greater than 250 °C.
`N#Cc1ccc(C(=O)Nc2ccc(-n3nc(C(F)(F)F)cc3C(F)(F)F)cc2)cc1`: the melting point was in the range of 169 to 171 °C.
In the case of `Cc1ccc(C(=O)Nc2c[nH]nc2C(=O)NCCC(F)(F)F)cn1`, the melting point is 196 to 197 °C.
Then `N#CCC1OC(n2cnc3c(NN4CCCCC4)nc(Cl)nc32)C(O)C1O` (stereo not drawn), with 192 to 193 °C.
In the case of `CCCCCCCCCSCCCN=C=O` it was 86 to 88 °C.
Then `COC(=O)C(Cc1cccc(OCC(=O)O)c1)c1nc(-c2ccccc2)c(-c2ccccc2)o1` (stereo not drawn), with 122 to 127 °C; and `CCCOc1ccc(C(CC(N)=O)N2C(=O)c3ccccc3C2=O)cc1` (stereo not drawn), with 110 °C.
Take `N#CC12COc3cc(Cl)ccc3C1=NN(C(=O)Nc1ccc(C(F)(F)F)cc1)C2` (stereo not drawn): the melting point was 227 to 229 °C.
In the case of `CC1(C)C2C(=O)OC(C(Br)(Br)Br)C21` (stereo not drawn) it was 101 to 103 °C; in that of `CCS(=O)(=O)Oc1cn(C)c2cc(F)ccc2c1=O`, 154 to 156 °C; in that of `C#CCOc1nc(N)c(C(F)(F)F)cc1Cl`, 56 to 58 °C.
Then `CCCCc1sc(C(N)=O)c2c1-c1nn(C)cc1CC2`, with 227 to 228 °C; and `CN(c1cccc2cc(C3=NCC(C)(CCOS(C)(=O)=O)S3)[nH]c12)S(=O)(=O)c1cccs1` (stereo not drawn), with 149 to 150 °C.
In the case of `CN(C)CCCCCCNCc1ccc(-c2cc3ncnc(Nc4ccc5[nH]ccc5c4)c3s2)cc1` it was 134 to 148 °C; in that of `CC(C)c1ccc(C(=O)Cl)cc1S(N)(=O)=O`, 177 °C; in that of `Cc1cc(CCCCCOc2ccc(C#N)cc2)no1`, 61 to 62 °C.
On to `COc1ccc2c(c1)CC(C(N)=O)N2C(C)=O` (stereo not drawn), for which the melting point fell in the range of 196 to 197 °C.
Then `O=[N+]([O-])c1ccc(Br)cc1-c1cc(-c2ccc(Br)cc2)on1`, with 184 to 185 °C; and `O=C(NCc1cccnc1)C1Oc2ccc(Cl)cc2Cc2cc(Cl)ccc2O1`, with 225 to 226 °C; and `CCCCCCCCCCCCC(=O)c1c[nH]c(C(=O)OC)c1`, with 92 to 93 °C.
In the case of `Cc1cc(CSCCNC(=C[N+](=O)[O-])NCC(O)c2cccc(Br)c2)sc1CN(C)C` (stereo not drawn) it was 104 to 106 °C; in that of `COc1cccc(OCc2cccc(OCc3ccc4ccccc4n3)c2)c1C(=O)O`, 149 to 152 °C; in that of `CC(C)CCCC(C)C1CC=C2C3=C(CCC21C)C1(C)CCC(O)CC1CC3` (stereo not drawn), 113 to 114 °C.
`CCCCOC(=O)c1cc(=O)c2c3c(cc(Cl)c2o1)-c1ccc(S(=O)(=O)O)cc1C(C)(C)O3` displayed a melting point of 241 to 243 °C.
Then `CC(O)(c1ccc(F)cc1)c1ccc(-c2ccncc2)cc1` (stereo not drawn), with 166 to 170 °C; and `CCOC(=O)c1cccc2c1c(C(=O)C(=O)NC1=CC(=O)OC1)cn2Cc1ccc(Cl)cc1`, with 242 to 244 °C.
In the case of `CCCOc1ccc(F)c2c(=O)c(-c3ccc(OC)cc3)cn(CCN3CCOCC3)c12` it was 206 to 208 °C; in that of `N#Cc1ccc(N(Cc2ccc(OCc3ccccc3)cc2)n2cnnc2)cc1-c1cc2ccccc2o1`, 200 to 201 °C.
In the case of `CC1SC(=O)NN=C1c1ccc2c(c1)C(=Nc1ccc(N(C)C)cc1)C(=O)N2` (stereo not drawn) it was 261 °C; in that of `O=[N+]([O-])c1cnn(-c2c(Cl)cc(C(F)(F)F)cc2Cl)n1`, 105 °C; in that of `C=C(C)C(=O)c1ccc(OC)c(Cl)c1Cl`, 59 °C.
`COc1ccc(-c2nc(-c3ccc(Br)cc3)sc2-c2ccc(OC)cc2)cc1` showed a melting point of 155 to 157 °C.
`Cc1cccc2c1-n1cnnc1SC2` came in with a melting point of 234 °C.
For `CC(=O)Nc1cc(C(C)(C)C)c(SC2=C(O)CC(CCc3ccc(O)cc3)(C3CCCC3)OC2=O)cc1C` (racemic), the melting point was 181 °C.

Broadly, the melting point is the temperature, or range, at which the solid turns liquid.
